Test results as given in EP0100569A1, “Spasmolytically active (+)S-enantiomer of secoverine” (DUPHAR INT[…] B.V, priority 1982, dated 1984).
Structures can show the parent of a compound that is named as a salt.

Key:
[1] = system: vas deferens of the rat; assay: Potentiation of the activity of noradrenaline on the vas deferens in vitro; assay type: cell-based; conditions: for EC (2-fold shift): Rattus norvegicus, negative logarithm of the molar concentration giving a shift to the left of a factor 2 of the noradrenaline curve, read-out: pP2-value (converted); for noradrenaline potentiation: rat vas deferens in vitro
Description: The test used is a modification of the method as described by Ursillo and Jacobsen, J. Pharmacol. Ex. Ther. 148, (1965), 247.
The smallest dose which gave a potentiating effect was […], and the potentiating activity was maximum in a quantity of 5 x 10 7M. Higher dosages caused a non--specific decrease of the maximum of the noradrenaline curve.
For quantifying the effect at the 50% point of the contraction curve (maximum of the control noradrenaline curve = 100%), the shift of the curve obtained with the compound to be tested (expressed as DR) was measured. The pP2-values were calculated in the same manner as the pA2-values mentioned sub b), according to the equation
^pP2 ^= -log [secoverine] + log (DR-1).

[2] = system: cornea of male mice; assay: Local anaesthetic activity on the cornea; assay type: in vivo; conditions: concentration of solution giving local anaesthesia in 50% of the animals, 10 per dose, determined graphically
Procedure: The anaesthetic activity on the cornea of male mice (18-22 g), 10 animals per dose, was determined according to the method by Weidmann and Petersen, J. Pharmacol. Exp. Ther., 115 (1955), 246. The concentration of the solution of the compounds which gave local anaesthesia in 50% of the animals was determined graphically (EC50--value): […]

[3] = system: rat jejunum; assay: Peripheral spasmolytic activity in vitro, furtrethonium as spasmogen; assay type: cell-based
Procedure: (§1) The required organs were isolated from killed guinea pigs and the contents and adherent tissues were carefully removed from suitable pieces. The said organs were then suspended in a bath containing 50 ml of Tyrode solution through which oxygen was led. The spasmogenically active substance (carbachol) was added to the bath inter- mittem tly and, after a constant response to the spasmogen had been obtained, the spasmolytic activity of the substances to be tested was measured by adding them to the bath 30 seconds prior to the spasmogen.
Similar results were obtained by using rat jejunum as an organ and using furtrethonium as a spasmogenically active substance: the (+)-enantiomer of secoverine now was 2.10 times as active as the racemate.

[4] = system: guinea pigs; assay: Anticholinergic activity in vivo, carbachol as spasmogen; conditions: i.v.
Procedure: These tests were carried out according to the method by J.M.A. Zwagemakers, Arzneimittelforschung, 30 (II), (1980), 1517-1526 in which carbachol was used as a spasmogenically active substance. After a constant response to the spasmogen had been obtained, the compound to be tested was administered intravenously (i.v.) to guinea pigs 3 minutes prior to the next quantity of spasmogenically active substance. The activity of the compounds was determined for 52 minutes. Contractions obtained after preceding administration of the substance to be tested were expressed as percentages of the average of two control values and were plotted graphically. The average percentage of inhibition during the period of 52 minutes was calculated from the area under the curve, and the maximum inhibition and the duration of the spasmolytic activity were estimated by means of the time-contraction curve. The spasmolytic activity is considered to be terminated when two successive contractions show less than 20% inhibition.

[5] = system: guinea pig ileum; assay: Peripheral spasmolytic activity in vitro, 4-point analysis, carbachol as spasmogen; assay type: cell-based
Procedure: These tests were carried out according to the normal 4--point analysis in which the termina-1 guinea pig ileum was used as isolated organ and carbachol was used as a cholinergic spasmogen.
as §1
The relative activity of the (+)-enantiomer of secoverine as compared with the racemate was calculated fron, a series of 4-point assays: the (+)-enantiomer of secoverine was 1.86 times as active as the racemate.

Row | SMILES | EC (2-fold shift) [1] | noradrenaline potentiation [1] | EC50-value (% w/vol) [2] | relative activity as compared with the racemate [3] | activity in vivo relative to the racemate [4] | relative activity as compared with the racemate ([5]; guinea pig ileum, carbachol, series of 4-point assays) | anticholinergic spasmolytic activity in peripheral organs relative to the racemate ([5]; summary statement)
1 | CCN(CCCC(=O)C1CCCCC1)C(C)Cc1ccc(OC)cc1 (racemic) [racemate] | 0.309 µM | significant noradrenaline potentiation | 0.13 % w/vol | – | – | – | –
2 | CCN(CCCC(=O)C1CCCCC1)[C@@H](C)Cc1ccc(OC)cc1 [(+)-enantiomer of secoverine, (+)S-1-cyclohexyl-4-[ethyl(p-methoxy-α-methylphenethyl)--amino]-l-butanone hydrochloride] | 0.263 µM | significant noradrenaline potentiation | 0.20 % w/vol | 2.10 times | about twice as active | 1.86 times | approximately twice as strong
3 | CCN(CCCC(=O)C1CCCCC1)[C@H](C)Cc1ccc(OC)cc1 [(-)-enantiomer of secoverine] | 0.17 µM | significant noradrenaline potentiation | 0.08 % w/vol | – | – | – | –
